Values of other authors as cited in paper PMC9276671, “A first-in-human Phase I dose-escalation trial of the novel therapeutic peptide, ALM201, demonstrates a favourable safety profile in unselected patients with ovarian cancer and other advanced solid tumours” (British Journal of Cancer, 2022).

What was measured:
tubulin = tested on: tubulin; set-up: method as in Investigator brochure (IB); settings: ref Investigator brochure (IB), cited from earlier work; for IC50: protocol Table 2, read-out: Tubulin polymerisation IC50; for Tubulin polymerisation IC50: protocol Table 3
cell viability = settings: protocol Table 2; ref Investigator brochure (IB); cited from earlier work
Excerpt: (§1) ALM201 also had no effect on cytok ...

cell cycle = settings: protocol Table 2 (IC50 (nM)); ref Investigator brochure (IB); cited from earlier work
Excerpt: as §1

HMEC-1 = settings: protocol Table 3; ref Investigator brochure (IB); read-out: Tube formation IC50; cited from earlier work
Excerpt: as §1

proliferation = settings: protocol Table 3; ref Investigator brochure (IB); cited from earlier work
Excerpt: as §1

[1] = tested on: HMEC-1, a human vascular endothelial cell-line; settings: protocol Table 3; ref Investigator brochure (IB); read-out: Wound scrape IC50; cited from earlier work
Excerpt: page 37: Almac Discovery Confidential There are five main histological subtypes of ovarian cancer differing in tissue of origin, stage of presentation, sensitivity to chemotherapy, survival and driver genetic mutations. The most aggressive of these subtypes are the high grade serous tumours. […] ALM201 also had no effect on cytok ...

Compound	IC50 (tubulin) [nM]	IC50 (cell viability) [nM]	Cell cycle arrest (cell cycle)	Tubulin polymerisation IC50 (tubulin)	IC50 (HMEC-1) [nM]	IC50 (proliferation) [nM]	IC50 [1] [nM]
COc1ccc(C[C@@H](O)c2cc(OC)c(OC)c(OC)c2)cc1O [Combretastatin]	360	0.2	Yes				
CCN(CC)CCNC(=O)c1c(C)[nH]c(/C=C2\C(=O)Nc3ccc(F)cc32)c1C [Sunitinib]				No effect	4.4	[…]	8.9
CC[C@]1(O)C[C@@H]2CN(CCc3c([nH]c4ccccc34)[C@@](C(=O)OC)(c3cc4c(cc3OC)N(C)[C@H]3[C@@](O)(C(=O)OC)[C@H](OC(C)=O)[C@]5(CC)C=CCN6CC[C@]43[C@@H]65)C2)C1 [Vinblastine]	[…]	0.02	Yes				
Bevacizumab				No effect	2400	158	59
